From ChEMBL document CHEMBL1156369, “New acetophenone glucosides isolated from extracts of Helichrysum italicum with antiinflammatory activity” (2001)
Activity calls are given as the source filed them. The calls are words filed in the database; no cut-off is given here.

system: Mus musculus; assay: Antiinflammatory activity against TPA-induced ear edema in mouse at 0.5 mg/ear topically; type: functional

Q: With `C=C(CO[C@@H]1O[C@H](CO)[C@@H](O)[C@H](O)[C@H]1O)[C@@H]1Cc2cc(C(C)=O)ccc2O1` as the compound, how does the Activity read?
A: The Activity was “inactive”.

Q: For `C=C(CO)[C@@H]1Cc2cc(C(C)=O)ccc2O1` [BITALIN A], which Activity is on record?
A: Its Activity is 50%.

Q: For `Cc1occc(=O)c1O[C@@H]1O[C@H](CO)[C@@H](O)[C@H](O)[C@H]1O`, which Activity is on record?
A: Its Activity is “inactive”.

Q: With `CC(=O)c1ccc(O[C@@H]2O[C@H](CO)[C@@H](O)[C@H](O)[C@H]2O)c(CC=C(C)C)c1` as the compound, how does the Activity read?
A: The Activity was “inactive”.

Q: Which Activity does the source give for `CC(=O)c1ccc(O)c(CC=C(C)C)c1` here?
A: The Activity was “inactive”.

Q: How did the Activity turn out when `CC(=O)c1ccc(O[C@@H]2O[C@H](CO)[C@@H](O)[C@H](O)[C@H]2O)c(CCO)c1` was run?
A: The Activity was “inactive”.

Q: `C=C(C)C(O)Cc1cc(C(C)=O)ccc1O` (stereo not drawn) was tested. Which Activity did it give?
A: The Activity was 68%.

system: Mus musculus; assay: Antiinflammatory activity against TPA-induced ear edema in mouse assessed per ear drug treated topically; type: functional

Q: `C=C(C)C(O)Cc1cc(C(C)=O)ccc1O` (stereo not drawn) was tested. Which ID50 did it give?
A: The ID50 was 0.63 µmol.
